Test results taken from ChEMBL document CHEMBL3886941 (2016).

Molecular target: Transient receptor potential M8 protein (Canis lupus familiaris, UniProt Q1A7N1)
Assay: Functional Assay: The functional activity of compounds of the formula (I) was determined by measuring changes in intracellular calcium concentration using a Ca2+-sensitive fluorescent dye. The changes in fluorescent signal were monitored by a fluorescence plate reader, either a FLIPR (Molecular Devices) or FDSS (Hamamatsu). Increases in intracellular Ca2+ concentration were readily detected upon activation with icilin.At 24 hrs prior to assay, HEK293 cells stably expressing canine TRPM8 were seeded in culture medium in black wall, clear-base poly-D-lysine coated 384-well plates (BD Biosciences, NJ, USA) and grown overnight in 5% CO2 at 37° C. On assay day, growth media was removed and cells were loaded with Calcium 3 Dye (Molecular Devices) for 35 min at 37° C., under 5% CO2 and then for 25 min at room temperature and atmosphere. Subsequently, cells were tested for agonist-induced increases in intracellular Ca2+ levels using FLIPR or FDSS. Cells were challenged with a compound of the Formula (I) (at varying concentrations) and intracellular Ca2+ was measured for 5 min prior to the addition of icilin to all wells to achieve a final concentration that produces approximately an 80% maximal response. EC50 or IC50 values for compounds of the present invention were determined from eight-point dose-response studies.
Type: cell-based

Transient receptor potential M8 protein, sequence (Q1A7N1 whole entry): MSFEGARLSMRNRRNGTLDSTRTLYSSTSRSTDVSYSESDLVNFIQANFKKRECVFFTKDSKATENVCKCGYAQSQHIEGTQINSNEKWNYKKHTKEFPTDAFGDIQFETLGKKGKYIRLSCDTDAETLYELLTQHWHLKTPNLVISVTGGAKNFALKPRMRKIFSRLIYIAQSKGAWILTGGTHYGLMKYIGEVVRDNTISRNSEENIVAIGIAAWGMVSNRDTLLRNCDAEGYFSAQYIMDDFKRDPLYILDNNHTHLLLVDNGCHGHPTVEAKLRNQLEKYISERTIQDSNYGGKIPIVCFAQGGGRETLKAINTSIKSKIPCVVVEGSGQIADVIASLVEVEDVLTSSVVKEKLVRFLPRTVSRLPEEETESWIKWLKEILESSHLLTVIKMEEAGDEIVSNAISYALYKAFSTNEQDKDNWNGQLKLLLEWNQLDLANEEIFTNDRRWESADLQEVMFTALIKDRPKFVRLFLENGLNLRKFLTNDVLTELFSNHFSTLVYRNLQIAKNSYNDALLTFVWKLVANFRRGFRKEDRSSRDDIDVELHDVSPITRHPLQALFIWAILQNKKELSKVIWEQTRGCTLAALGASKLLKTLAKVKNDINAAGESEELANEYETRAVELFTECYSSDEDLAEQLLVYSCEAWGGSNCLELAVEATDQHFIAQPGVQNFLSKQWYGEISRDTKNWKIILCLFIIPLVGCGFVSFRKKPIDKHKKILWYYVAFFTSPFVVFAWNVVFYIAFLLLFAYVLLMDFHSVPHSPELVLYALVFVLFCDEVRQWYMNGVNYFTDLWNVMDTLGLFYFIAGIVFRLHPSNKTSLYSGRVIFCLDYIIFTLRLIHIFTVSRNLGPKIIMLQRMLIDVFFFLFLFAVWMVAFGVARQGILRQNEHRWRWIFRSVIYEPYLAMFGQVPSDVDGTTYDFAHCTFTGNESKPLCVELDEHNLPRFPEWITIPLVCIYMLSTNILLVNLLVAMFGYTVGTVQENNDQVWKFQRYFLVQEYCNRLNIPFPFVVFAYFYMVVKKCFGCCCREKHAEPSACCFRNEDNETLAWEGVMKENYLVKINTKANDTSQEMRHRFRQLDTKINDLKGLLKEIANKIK

SMILES | IC50 [µM]
Cc1c(N(Cc2ccc3c(c2)OC(F)(F)O3)S(=O)(=O)c2ccc(C(=O)O)cc2)sc2ccccc12 | 0.002
O=c1[nH]c(-c2ccc(S(=O)(=O)N(CCCCC(F)(F)F)c3sc4ccccc4c3Br)cc2)no1 | 0.0079
Cc1c(N(Cc2cc(Cl)ccc2Cl)S(=O)(=O)c2ccc(C(=O)O)cc2)sc2ccccc12 | 0.009
CCS(=O)(=O)N(Cc1ccc(F)c(F)c1)c1sc2ccccc2c1C(C)=O | 0.015
CCCCN(c1sc2ccccc2c1C(C)O)S(=O)(=O)CC (centres undefined) | 0.038
CCCN(c1sc2ccccc2c1C)S(=O)(=O)c1ccc(C(=O)O)cc1 | 0.053
COc1ccc(CN(c2sc3ccccc3c2C)S(=O)(=O)c2ccc(C(=O)O)cc2)cc1OC | 0.006
O=c1[nH]c(-c2ccc(S(=O)(=O)N(CCC(F)(F)F)c3sc4ccccc4c3Br)cc2)no1 | 0.0181
O=S(=O)(c1ccc(-c2nnn[nH]2)cc1)N(CCC(F)(F)F)c1sc2ccccc2c1Br | 0.019
O=S(=O)(c1cccs1)N(Cc1ccc(F)c(C(F)(F)F)c1)c1sc2ccccc2c1Cl | 0.006
Cc1c(N(Cc2ccccc2)S(=O)(=O)c2ccc(C(=O)O)cc2)sc2ccccc12 | 0.004
O=S(=O)(c1ccc(-c2nnn[nH]2)cc1)N(CCC1CC1)c1sc2ccccc2c1Br | 0.006
CC(C)(C)OC(=O)N1CCCC1CN(c1sc2ccccc2c1Cl)S(=O)(=O)c1ccccc1 (centres undefined) | 0.205
O=S(=O)(c1ccc(-c2nnn[nH]2)cc1)N(CCCCC(F)(F)F)c1sc2ccccc2c1Br | 0.0088
O=[N+]([O-])c1cccc(CN(c2sc3ccccc3c2Br)S(=O)(=O)c2ccccc2)c1 | 0.0104
O=S(=O)(c1ccccc1)N(CCc1ccccc1)c1sc2ccccc2c1Cl | 0.024
CCS(=O)(=O)N(Cc1ccc(F)c(OC)c1)c1sc2ccccc2c1C(C)(C)O | 0.0041
COC(=O)CCS(=O)(=O)N(CCC(F)(F)F)c1sc2ccccc2c1C | 0.0241
O=S(=O)(CC(F)(F)F)N(Cc1ccc(F)c(C(F)(F)F)c1)c1sc2ccccc2c1CO | 0.015
